pEC50, pKi: −log10 of the molar value.
Experiments:
[1] = target: T1, human recombinant dopamine D3 receptor (Homo sapiens, UniProt P35462); test: inhibition of [125I]iodosulpride binding, D3 receptor; conditions: for selectivity ratio, D2 receptor affinity relative to D3 receptor affinity: D2 vs D3, times lower affinity at D2; for pKi: [125I]iodosulpride binding, cells expressing human recombinant receptor, read-out: affinity for the D3 receptor
T1 construct: expressed in transfected cells
Method: (§1) The activity of the derivatives of formula (I) according to the invention was evaluated with respect to cells expressing human recombinant dopamine receptors. The inhibition constants (Ki) were measured by inhibition of [^125I]iodosulpride binding as described by Sokoloff et al. (1992). The degree of stimulation of the D3 receptor was determined by measuring the incorporation of [^3H]-thymidine in NG 108-15 cells expressing the D3 receptor (Pilon et al., 1994; Sautel et al., 1995).

[2] = target: T2, human recombinant dopamine D2 receptor (Homo sapiens, UniProt P14416); test: inhibition of [125I]iodosulpride binding, D2 receptor; conditions: cells expressing human recombinant receptor, read-out: affinity for the D2 receptor
T2 construct: expressed in transfected cells
T2 sequence (P14416 whole entry): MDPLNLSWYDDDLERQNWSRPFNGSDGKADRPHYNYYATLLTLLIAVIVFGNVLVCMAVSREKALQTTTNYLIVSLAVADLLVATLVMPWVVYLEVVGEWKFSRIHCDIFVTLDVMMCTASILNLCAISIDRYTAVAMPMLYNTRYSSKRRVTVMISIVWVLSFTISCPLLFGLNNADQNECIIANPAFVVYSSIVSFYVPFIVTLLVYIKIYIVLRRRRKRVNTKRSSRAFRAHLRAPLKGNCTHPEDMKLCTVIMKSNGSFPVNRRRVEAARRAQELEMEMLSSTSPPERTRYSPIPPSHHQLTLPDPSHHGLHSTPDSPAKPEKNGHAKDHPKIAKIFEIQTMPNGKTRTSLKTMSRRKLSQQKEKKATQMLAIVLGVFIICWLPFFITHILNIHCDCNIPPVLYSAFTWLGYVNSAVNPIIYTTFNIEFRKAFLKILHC
Method: as §1

[3] = target: T3, human D3 receptor (Homo sapiens, UniProt P35462); test: mitogenesis assay, [3H]thymidine incorporation in NG 108-15 cells expressing the D3 receptor; type: cell-based; conditions: for pEC50: read-out: 50% effective concentration (EC50), mitogenesis; for intrinsic activity (efficacy): relative to quinpirole (full agonist, efficacy 1), nafadotride is full antagonist (efficacy 0)
T3 construct: expressed in transfected cells; host or cells: NG 108-15 cells
T3 sequence (P35462 whole entry): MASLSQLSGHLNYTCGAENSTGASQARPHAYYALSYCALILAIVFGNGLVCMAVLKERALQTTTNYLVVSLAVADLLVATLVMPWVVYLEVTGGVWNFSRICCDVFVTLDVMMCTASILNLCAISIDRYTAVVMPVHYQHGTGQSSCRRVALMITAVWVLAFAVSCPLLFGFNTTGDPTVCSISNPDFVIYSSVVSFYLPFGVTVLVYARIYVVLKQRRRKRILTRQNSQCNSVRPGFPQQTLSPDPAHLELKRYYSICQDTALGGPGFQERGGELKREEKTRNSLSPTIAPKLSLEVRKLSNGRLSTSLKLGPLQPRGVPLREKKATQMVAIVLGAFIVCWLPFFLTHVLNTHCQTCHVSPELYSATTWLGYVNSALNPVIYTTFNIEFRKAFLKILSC
Method: The activity of the derivatives of formula (I) according to the invention was evaluated with respect to cells expressing human recombinant dopamine receptors.
I-28 activity in vitro towards recombinant D3 receptor has been determined using a validated mitogenesis assay which was performed as follows:
After a 24 h-culture, cells were washed twice with culture medium without fetal calf serum and incubated for 16 hours with drugs in four replicates. Then [^3H]thymidine (1 μCi per well) was added for 2 hours and cells were harvested by vacuum filtration through Whatman GF/C fiber filters using an automated cell harvester (Brandel-Beckman) and rinsed 10 times with 200 μl 50 mM potassium phosphate buffer containing 150 mM NaCl. Radioactivity retained on filters was counted by liquid scintagraphy.

[4] = system: spontaneous locomotor activity of mice; test: spontaneous locomotor activity during habituation in mice; type: in vivo
Method: (§2) Activity of I-28 in vivo was assessed by using a simple test recently developed (Leriche et al. 2003 and international PCT application WO 2004/084952).
(§3) Male Swiss mice (Charles River, France), weighing 26-28 g, were housed six per cage (25×15×13 cm), on a 12 h/12 h light/dark cycle (lights on at 07:00 a.m.), with food and water freely available. Room temperature ranged from 20° C. to 22° C. and humidity varied between 55% and 65%.
(§4) Dizocilpine (MK-801) [(+)-5-methyl-10,11-dihydro-5H-dibenzo[a,d]cyclohepten-5,10-imine maleate] (Sigma) was dissolved in saline (0.9% NaCl). I-28 was dissolved in a few drops of HCl and distilled water, and the pH of the solution was adjusted to pH 5 using NaOH. The doses of I-28 are expressed as the weight of the base. The compounds were injected i.p. in a volume of 5 ml·kg^−1.
All experiments were conducted between 2.00 p.m. and 6.00 p.m., and the animals were kept in the test room at least 1 hour before recording their activity. The locomotor activity was measured in an actimeter that was composed of eight individual activity cages (30×15×18 cm, with sawdust on the floor) transected by infrared beams (Imetronic, Pessac, France). […]
Mice were injected with either Vehicle (distilled water pH 5) or I-28 (0.1, 0.3, 1 or 3 mg·kg^−1), and their horizontal locomotor activity was measured for 30 minutes (spontaneous locomotor activity). […]

[5] = system: MK-801-induced hyperactivity in mice; test: MK-801-induced hyperactivity in mice; type: in vivo
Method: as §2, §3, §4
All experiments were conducted between 2.00 p.m. and 6.00 p.m., and the animals were kept in the test room at least 1 hour before recording their activity. The locomotor activity was measured in an actimeter that was composed of eight individual activity cages (30×15×18 cm, with sawdust on the floor) transected by infrared beams (Imetronic, Pessac, France). Counts for forward horizontal activity were incremented each time the animal moved from one-half part of the cage to the other, corresponding to disruption of two crossed parallel beams distant of 14 cm. In time-course studies, counts were summed every 5 minute.
Mice were injected with either Vehicle (distilled water pH 5) or I-28 (0.1, 0.3, 1 or 3 mg·kg^−1), and their horizontal locomotor activity was measured for 30 minutes (spontaneous locomotor activity). They were subsequently treated with saline or MK-801 (0.12 mg·kg^−1) and the activity was measured for 1 hour (MK-801-induced locomotor activity).

[6] = NG 108-15 cells transfected with the human D3 receptor

T1 sequence (P35462 whole entry): as above

## O=C(NCCCCN1CCN(c2cccc(O)c2)CC1)c1ccc2ccccc2c1 [reference compound]
[1]
  selectivity ratio, D2 receptor affinity relative to D3 receptor affinity: 59
  pKi: 9.13
[2]
  pKi: 7.36

## O=C(NCCCCN1CCN(c2cccc(O)c2)CC1)C1=Cc2ccccc2CC1 [Example 4, N-[4-[(3-hydroxyphenyl)piperazine-1-yl]butyl]-3,4-dihydronaphtalene-2-carboxamide]
[1]
  selectivity ratio, D2 receptor affinity relative to D3 receptor affinity: 160
  pKi: 9.15
[3]; [6]
  pEC50: 8.66
[3]
  intrinsic activity (efficacy): 0.85

## CCCCN1CCCC1CNC(=O)c1cc(C#N)c2ccccc2c1OC (centres unmarked) [nafadotride, reference compound]
[3]
  intrinsic activity (efficacy): 0

## N#Cc1cccc(N2CCN(CCCCNC(=O)C3=Cc4ccccc4CC3)CC2)c1 [I-28]
[1]
  pKi: 8.68
[4]; 3.0 mg·kg−1 i.p., P=0.042
  change of spontaneous activity: −25%
[4]; i.p., doses below 3.0 mg·kg−1, 30 minutes
  effect on spontaneous locomotor activity during habituation: no effect
[3]; NG 108-15 cells transfected with the human D3 receptor, mean ±SEM
  maximal response, % of that produced by quinpirole: 37±2%
[3]; [6]
  pEC50: 8.20
[3]
  intrinsic activity (efficacy): 0.37
[5]; inferred from activity after systemic administration in mice
  blood-brain barrier passage: crosses the blood-brain barrier
[5]; mice, 0.3 mg·kg−1 i.p., P=0.031
  inhibition of MK-801-induced hyperactivity: 36.7%
[5]; mice, 1.0 mg·kg−1 i.p., P=0.0073
  inhibition of MK-801-induced hyperactivity: 46.6%
[5]; mice, 3.0 mg·kg−1 i.p., P=0.0012
  inhibition of MK-801-induced hyperactivity: 57.3%
[5]; mice, i.p., MK-801 0.12 mg·kg−1
  ED50, inhibition of MK-801-induced hyperactivity: about 0.3 mg·kg−1
[2]
  pKi: 6.50

From patent US7875617B2, “3,4-dihydro-2-naphthamide derivatives as selective dopamine D3 ligands” (Institut National de la Sante et de la Recherche Medicale …, priority 2005, dated 2011)
